# Like-named read-outs stand apart in the source and are kept apart here.
# Tests used:
# [1] = system: Ba/F3 cells containing Ros1 wild-type protein + IL-3; test: Ba/F3-Ros1 cell proliferation counter-screen, wild-type protein in the presence of 10 ng/ml murine IL-3; format: cell-based; conditions: Mus musculus, BaF3, 24 h, read-out: BaF3-ROS1 + IL3 pIC50 (converted)
# How it was run: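 Compounds were dispensed from DMSO into plates, and 20000 Ba/F3 cells carrying wild-type Ros1 were added in phenol red-free RPMI-1640 with 10% FBS plus 10 ng/ml murine IL-3. After 24 h at 37 °C, Alamar Blue was added for 4 h and fluorescence recorded.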
# Ros1 enzyme = target: T1, Ros1 enzyme (Homo sapiens, UniProt P08922); test: Ros1 enzymatic assay; format: biochemical; conditions: Ros1 enzymatic assay; for IC50: read-out: ROS1 pIC50 (converted)
# T1 construct: 0.5 μg/ml Ros1 enzyme
# T1 sequence (P08922 28-2347): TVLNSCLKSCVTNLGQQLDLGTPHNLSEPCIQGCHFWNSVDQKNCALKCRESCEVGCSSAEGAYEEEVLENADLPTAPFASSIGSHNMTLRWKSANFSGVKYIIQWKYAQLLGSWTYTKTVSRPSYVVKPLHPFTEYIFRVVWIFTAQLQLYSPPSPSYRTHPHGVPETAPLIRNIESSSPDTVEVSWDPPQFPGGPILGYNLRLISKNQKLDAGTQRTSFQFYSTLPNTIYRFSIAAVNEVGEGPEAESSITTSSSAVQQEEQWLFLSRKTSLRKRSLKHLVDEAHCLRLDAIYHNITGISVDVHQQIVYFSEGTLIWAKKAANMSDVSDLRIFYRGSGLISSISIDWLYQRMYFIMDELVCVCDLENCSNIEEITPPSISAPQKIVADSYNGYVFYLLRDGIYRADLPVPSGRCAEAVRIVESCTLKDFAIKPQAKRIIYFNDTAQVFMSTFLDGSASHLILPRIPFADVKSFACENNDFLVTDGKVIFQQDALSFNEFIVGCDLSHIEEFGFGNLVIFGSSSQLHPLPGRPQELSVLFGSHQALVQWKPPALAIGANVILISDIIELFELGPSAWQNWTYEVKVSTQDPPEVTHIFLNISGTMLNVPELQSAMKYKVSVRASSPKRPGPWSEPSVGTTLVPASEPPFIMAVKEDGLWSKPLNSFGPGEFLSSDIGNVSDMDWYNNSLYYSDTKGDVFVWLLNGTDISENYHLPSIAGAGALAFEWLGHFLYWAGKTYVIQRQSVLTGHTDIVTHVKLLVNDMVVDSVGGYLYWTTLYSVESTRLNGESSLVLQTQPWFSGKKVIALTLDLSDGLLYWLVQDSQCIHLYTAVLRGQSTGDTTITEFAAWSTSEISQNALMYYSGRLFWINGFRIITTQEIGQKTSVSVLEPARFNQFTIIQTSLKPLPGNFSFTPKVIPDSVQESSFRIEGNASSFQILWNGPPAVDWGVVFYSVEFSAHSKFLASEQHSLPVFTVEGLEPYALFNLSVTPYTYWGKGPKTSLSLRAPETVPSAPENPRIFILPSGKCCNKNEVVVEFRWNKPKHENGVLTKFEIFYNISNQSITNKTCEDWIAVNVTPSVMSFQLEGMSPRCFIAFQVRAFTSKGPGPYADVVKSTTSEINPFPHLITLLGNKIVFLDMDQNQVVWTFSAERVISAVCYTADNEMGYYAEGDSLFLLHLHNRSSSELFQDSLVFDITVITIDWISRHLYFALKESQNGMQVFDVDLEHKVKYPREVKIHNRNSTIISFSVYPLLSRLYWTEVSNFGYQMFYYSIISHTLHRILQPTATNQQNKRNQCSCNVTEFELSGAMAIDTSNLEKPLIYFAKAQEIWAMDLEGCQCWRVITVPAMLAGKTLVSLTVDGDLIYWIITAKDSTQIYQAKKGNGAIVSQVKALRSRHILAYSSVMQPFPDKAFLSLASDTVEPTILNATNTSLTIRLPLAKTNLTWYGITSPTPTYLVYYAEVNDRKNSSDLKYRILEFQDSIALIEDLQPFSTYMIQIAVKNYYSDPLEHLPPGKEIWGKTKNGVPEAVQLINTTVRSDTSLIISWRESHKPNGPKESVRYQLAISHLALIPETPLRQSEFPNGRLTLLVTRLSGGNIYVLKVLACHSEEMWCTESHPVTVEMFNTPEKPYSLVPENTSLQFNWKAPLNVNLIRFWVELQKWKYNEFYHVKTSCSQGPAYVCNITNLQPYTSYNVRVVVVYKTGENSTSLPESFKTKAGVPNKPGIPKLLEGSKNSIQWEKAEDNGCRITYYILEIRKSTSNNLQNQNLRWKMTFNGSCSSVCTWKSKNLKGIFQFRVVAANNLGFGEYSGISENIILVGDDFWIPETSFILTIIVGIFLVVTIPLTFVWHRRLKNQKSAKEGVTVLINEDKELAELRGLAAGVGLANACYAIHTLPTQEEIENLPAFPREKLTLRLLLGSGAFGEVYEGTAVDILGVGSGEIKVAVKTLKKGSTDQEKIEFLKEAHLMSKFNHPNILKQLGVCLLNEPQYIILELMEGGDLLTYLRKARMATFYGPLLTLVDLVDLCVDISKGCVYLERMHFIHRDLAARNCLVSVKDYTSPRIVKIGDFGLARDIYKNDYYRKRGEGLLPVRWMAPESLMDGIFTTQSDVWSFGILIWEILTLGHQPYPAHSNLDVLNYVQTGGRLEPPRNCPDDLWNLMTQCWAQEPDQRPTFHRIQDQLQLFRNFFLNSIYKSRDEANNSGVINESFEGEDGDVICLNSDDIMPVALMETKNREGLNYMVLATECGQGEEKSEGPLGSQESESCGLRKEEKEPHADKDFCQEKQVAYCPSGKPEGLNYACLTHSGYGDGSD
# How it was run: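 First, compounds meet Ros1 enzyme mix plus substrate mix containing IRS-Tide and 33P-labelled ATP at 20 μM. Next, incubation lasts 120 minutes at room temperature. Then EDTA stop buffer with streptavidin beads is added for 15 minutes, and bead-bound radioactivity is imaged.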
# [2] = target: Ba/F3 cells containing Ros1 with a mutation at the gatekeeper residue (L2026M) (Homo sapiens, UniProt P08922, L2026M, cells depend on it, form not given); test: Ba/F3-Ros1 cell proliferation assay, L2026M gatekeeper mutant; format: cell-based, murine; conditions: without IL-3
# Sequence of Ba/F3 cells containing Ros1 with a mutation at the gatekeeper residue (L2026M) (P08922 whole entry L2026M, form open): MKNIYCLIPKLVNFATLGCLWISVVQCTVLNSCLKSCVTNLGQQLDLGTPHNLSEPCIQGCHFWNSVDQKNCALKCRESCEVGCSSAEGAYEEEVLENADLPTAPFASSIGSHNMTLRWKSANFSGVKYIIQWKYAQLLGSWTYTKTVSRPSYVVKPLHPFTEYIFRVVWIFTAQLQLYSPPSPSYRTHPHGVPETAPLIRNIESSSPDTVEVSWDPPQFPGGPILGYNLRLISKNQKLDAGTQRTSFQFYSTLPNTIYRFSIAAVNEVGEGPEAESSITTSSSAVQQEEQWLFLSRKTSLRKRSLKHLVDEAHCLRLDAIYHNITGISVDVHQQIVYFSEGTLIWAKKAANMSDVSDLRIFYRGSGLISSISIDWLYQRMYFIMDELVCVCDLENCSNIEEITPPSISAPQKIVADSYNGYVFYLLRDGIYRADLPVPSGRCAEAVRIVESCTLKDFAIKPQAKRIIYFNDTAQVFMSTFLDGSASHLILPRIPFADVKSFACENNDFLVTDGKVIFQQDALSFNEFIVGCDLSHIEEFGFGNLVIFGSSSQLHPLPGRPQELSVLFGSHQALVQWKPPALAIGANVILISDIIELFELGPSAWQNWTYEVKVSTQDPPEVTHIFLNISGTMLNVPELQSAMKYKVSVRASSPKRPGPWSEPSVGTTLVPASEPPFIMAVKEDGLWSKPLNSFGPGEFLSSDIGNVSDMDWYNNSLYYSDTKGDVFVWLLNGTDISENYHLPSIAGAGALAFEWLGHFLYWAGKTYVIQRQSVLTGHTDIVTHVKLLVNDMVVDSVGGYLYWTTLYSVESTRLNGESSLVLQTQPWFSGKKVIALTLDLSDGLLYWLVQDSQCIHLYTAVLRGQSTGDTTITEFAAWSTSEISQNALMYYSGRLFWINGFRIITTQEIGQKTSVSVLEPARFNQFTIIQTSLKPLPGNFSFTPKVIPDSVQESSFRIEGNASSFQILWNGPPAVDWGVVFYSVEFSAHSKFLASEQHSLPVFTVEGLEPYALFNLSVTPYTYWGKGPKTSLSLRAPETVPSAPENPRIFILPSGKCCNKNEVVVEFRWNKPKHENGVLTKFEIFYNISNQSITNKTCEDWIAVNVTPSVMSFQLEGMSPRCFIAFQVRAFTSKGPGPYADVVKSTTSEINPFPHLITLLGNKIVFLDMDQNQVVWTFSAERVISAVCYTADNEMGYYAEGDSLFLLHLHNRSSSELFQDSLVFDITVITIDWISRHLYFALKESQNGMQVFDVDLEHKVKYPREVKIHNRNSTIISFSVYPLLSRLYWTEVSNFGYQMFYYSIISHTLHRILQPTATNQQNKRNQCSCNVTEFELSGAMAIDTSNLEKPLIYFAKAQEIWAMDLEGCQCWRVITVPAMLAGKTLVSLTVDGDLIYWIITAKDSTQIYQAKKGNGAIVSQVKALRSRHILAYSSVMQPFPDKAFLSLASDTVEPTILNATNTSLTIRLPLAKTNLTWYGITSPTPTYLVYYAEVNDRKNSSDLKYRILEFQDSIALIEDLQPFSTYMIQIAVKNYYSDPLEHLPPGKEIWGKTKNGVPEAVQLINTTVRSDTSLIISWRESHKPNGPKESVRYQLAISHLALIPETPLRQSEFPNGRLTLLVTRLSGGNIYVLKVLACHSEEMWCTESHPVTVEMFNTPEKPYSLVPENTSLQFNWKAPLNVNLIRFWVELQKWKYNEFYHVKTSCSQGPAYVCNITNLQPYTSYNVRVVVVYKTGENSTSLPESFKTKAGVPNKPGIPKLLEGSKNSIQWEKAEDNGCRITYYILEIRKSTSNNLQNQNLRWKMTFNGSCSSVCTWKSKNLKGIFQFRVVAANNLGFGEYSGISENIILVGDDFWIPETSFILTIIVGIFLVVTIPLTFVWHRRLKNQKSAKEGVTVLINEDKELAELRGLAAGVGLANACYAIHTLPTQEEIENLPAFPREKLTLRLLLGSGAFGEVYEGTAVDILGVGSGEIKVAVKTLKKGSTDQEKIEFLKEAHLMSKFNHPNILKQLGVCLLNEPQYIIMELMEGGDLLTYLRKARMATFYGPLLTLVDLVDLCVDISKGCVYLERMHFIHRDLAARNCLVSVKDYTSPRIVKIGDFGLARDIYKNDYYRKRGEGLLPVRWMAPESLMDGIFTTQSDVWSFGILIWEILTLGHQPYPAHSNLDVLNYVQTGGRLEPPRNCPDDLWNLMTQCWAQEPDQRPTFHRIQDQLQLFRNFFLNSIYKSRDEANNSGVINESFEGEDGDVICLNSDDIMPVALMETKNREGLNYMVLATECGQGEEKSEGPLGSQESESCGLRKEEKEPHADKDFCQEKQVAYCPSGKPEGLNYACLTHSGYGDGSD
# How it was run: (§1)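 Ba/F3 cells expressing wild-type, L2026M or G2032R Ros1 (20000 per well) were incubated with DMSO-solubilized compounds in phenol red-free RPMI-1640 with 10% FBS and 2 mM L-glutamine at 37 °C, 5% CO2 for 24 hours. Viability was then read by Alamar Blue fluorescence (ex 540/em 590 nm) after 4 h.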
# [3] = target: T2, Ba/F3 cells containing Ros1 wild-type protein (Homo sapiens, UniProt P08922, cells depend on it, form not given); test: Ba/F3-Ros1 cell proliferation assay, wild-type Ros1; format: cell-based, murine; conditions: without IL-3
# T2 construct: The background only speaks of 'a number of different unrelated proteins' and names SLC34A2-ROS1 for HCC78 cells
# T2 sequence (P08922 whole entry, stated change not applied): as the sequence (P08922 whole entry L2026M, form open) above, with M2026L counted along it
# How it was run: as §1
# [4] = system: HCC78 non-small cell lung cancer cells; test: HCC78 cell proliferation assay; format: cell-based; conditions: for EC50: Homo sapiens, HCC78, 96 h, read-out: HCC-78 PROL pEC50 (converted)
# How it was run: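 HCC78 NSCLC cells (~1000/well) in RPMI-1640 with 10% FBS were treated 24 h after seeding and exposed to compound for 4 days at 37 °C. Viability was read by MTT, with absorbance at 538 nm after DMSO/glycine solubilization.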
# [5] = system: Ros pY2274 in HCC78 cells; test: pROS1 immunofluorescence assay in HCC78 cells; format: cell-based; conditions: Homo sapiens, read-out: HCC78-pRos1 pIC50 (converted)
# Procedure: pROS1 Immunofluorescence Assay in HCC78 Cells
# Approximately 20000 HCC78 non-small cell lung cancer cells in 180 μl of cell culture medium (RPMI-1640, 10% FBS, 2 mM L-Glutamine, 10 mM Hepes, 1 mM sodium pyruvate, 4.5 g/L glucose, 1.5 g/L sodium bicarbonate, 25 μg/ml Gentamycin) were seeded in each well of a 96-well polystyrene, poly-D-lysine coated plate and incubated at 37° C. and 5% CO2. After 24 hours, compounds were diluted in cell culture medium from which 20 μl was added to the wells containing cells and incubated for 4 hours at 37° C. and 5% CO2. The medium was removed and the cells were fixed by adding 100 μl of 5% formaldehyde in TBS (tris-buffered saline) (50 mM Tris.HCl, pH 7.4, 150 mM NaCl) and incubating for 15 minutes at room temperature. The formaldehyde was removed and replaced with methanol for 10 minutes at room temperature, after which the cells were washed 3 times with TBS containing 1% Triton X-100 and incubated in Odyssee (Li-Cor) blocking buffer for 1 hour at room temperature. The cells were then incubated with the primary rabbit antibody directed against Ros pY2274 (cst-3078) diluted 1/200 in blocking buffer for 24 hours at room temperature. The cells were washed three times with TBS containing 0.1% Triton X-100 and incubated with a secondary anti-rabbit antibody conjugated to the fluorescent dye Alexafluor 680 in blocking buffer for 1 hour at room temperature. The cells were washed three times with TBS containing 0.1% Triton X-100 and left to dry before measuring RFUs (Relative Fluorescence Units) at 700 nm using a fluorescence imager.
# The same experiment was performed using total Ros1 antibody (sc-6347) diluted 1/1000 instead of Ros1 pY2274 antibody and an anti-goat antibody conjugated to IRDye800cw as a secondary antibody. RFUs were measured at […]. The signals from total Ros1 detection were used to normalize the Ros1 pY2274 values.
# [6] = target: Ba/F3 cells containing Ros1 with G2032R mutation (Homo sapiens, UniProt P08922, G2032R, cells depend on it, form not given); test: Ba/F3-Ros1 cell proliferation assay, G2032R crizotinib-resistance mutant; format: cell-based, murine; conditions: without IL-3
# Sequence of Ba/F3 cells containing Ros1 with G2032R mutation (P08922 whole entry G2032R, form open): as the sequence (P08922 whole entry L2026M, form open) above, with M2026L, G2032R counted along it
# Procedure: Ba/F3-Ros1 Cell Proliferation Assay
# This assay was carried out with Ba/F3 cells containing three different versions of Ros1: the wild-type protein, protein with a mutation at the gatekeeper residue (L2026M), and protein with a mutation identified in a tumor from a patient that became resistant to crizotinib (Xalkori®) treatment (G2032R). Compounds were solubilized in 100% DMSO (dimethyl sulfoxide) and sprayed into polystyrene, tissue culture treated 384-well plates. A 50 μl volume of cell culture medium (phenol red free RPMI-1640, 10% FBS (fetal bovine serum), 2 mM L-Glutamine) containing 20000 Ba/F3-Ros1 cells was added to each well and the plates were placed in an incubator at 37° C. and 5% CO2. After 24 hours, 10 μl of Alamar Blue solution (0.5 mM K3Fe(CN)6, 0.5 mM K4Fe(CN)6, 0.15 mM Resazurin and 100 mM Phosphate Buffer) was added to the wells, incubated for 4 hours at 37° C. and 5% CO2 before RFU's (Relative Fluorescence Units) (ex. 540 nm., em. 590 nm.) were measured in a fluorescence plate reader.
# [7] = counter-screen, wild-type, 10 ng/ml murine IL-3
# [8] = HCC78 cells, 4 hours, Ros pY2274 normalized to total Ros1
SMILES,CC50 [1],IC50 (Ros1 enzyme),Ba/F3 Ros1 L2026M (-IL-3) pIC50 [2],BaF3-ROS1-IL3 pIC50 [3],EC50 [4],"IC50 ([5]; HCC78, 4 h)",melting point,Ba/3 Ros1 G2032R (-IL-3) pIC50 [6],ROS1 pIC50 (Ros1 enzyme),"HCC-78 PROL pEC50 ([4]; HCC78 cells, 4 days, MTT)","CC50 [1, 7]","EC50 ([4]; HCC78 cells, 4 days, MTT)","IC50 [5, 8]"
O=C1NCCn2nc(-c3ccncc3)c(-c3ccc(OCc4ccc(C5CC5)cc4)cc3)c21 [Compound 4],> 10000 nM,39.8 nM,7.4,7.6,200 nM,79.4 nM,262 °C,6.8,,,,,
CC(C)c1ccc(COc2ccc(-c3c(-c4ccncc4)nn4c3C(=O)NCC4)cc2F)cc1 [Compound 18],> 10000 nM,10 nM,7.7,7.7,39.8 nM,,241 °C,7.3,,,,,
CC(C)c1ccc(COc2ccc(-c3c(-c4ccncc4)nn4c3C(=O)N(CCO)CC4)cc2F)cc1 [Compound 19],> 10000 nM,12.6 nM,8.0,8.2,< 31.6 nM,,172 °C,7.5,,,,,
CC(C)c1ccc(COc2ccc(-c3c(-c4ccncc4)nn4c3C(=O)N(CCO)CC4)c(F)c2)cc1 [Compound 21],> 10000 nM,10 nM,7.6,7.8,39.8 nM,,141 °C,7.4,,,,,
CC(C)c1ccc(COc2ccc(-c3c(-c4ccncc4)nn4c3C(=O)N(CCO)CC4)c(C#N)c2)cc1 [Compound 28],> 10000 nM,15.8 nM,7.7,7.8,63.1 nM,,185 °C,7.3,,,,,
CC(O)CN1CCn2nc(-c3ccncc3)c(-c3ccc(OCc4ccc(C(C)C)cc4)cc3)c2C1=O (centres unmarked) [Compound 46],,,7.1,7.5,,,177 °C,6.9,7.3,7.0,,,
CC(C)c1ccc(COc2ccc(-c3c(-c4ccncc4)nn4c3C(=O)N(CC(C)(C)O)CC4)cc2)cc1 [Compound 51],> 10000 nM,79.4 nM,7.3,7.2,100 nM,,211 °C,6.6,,,,,
CC(C)c1ccc(COc2ccc(-c3c(-c4ccncc4)nn4c3C(=O)N(CCOCCO)CC4)cc2)cc1 [Compound 53],,39.8 nM,6.9,7.4,,,121 °C,7.0,,,> 10000 nM,100 nM,
CNC(=O)CN1CCn2nc(-c3ccncc3)c(-c3ccc(OCc4ccc(C(C)C)cc4)cc3)c2C1=O [Compound 63],> 10000 nM,100 nM,7.3,7.1,398 nM,,161 °C,6.7,,,,,
COCCc1cc(COc2ccc(-c3c(-c4ccncc4)nn4c3C(=O)NCC4)cc2)ccc1C(C)C [Compound 84],> 10000 nM,25.1 nM,7.2,7.7,31.6 nM,,208 °C,7.0,,,,,
CC(C)c1cc(F)c(COc2ccc(-c3c(-c4ccncc4)nn4c3C(=O)N(CCO)CC4)cc2)cc1F [Compound 97],> 10000 nM,158 nM,6.3,6.9,3160 nM,,147 °C,<5,,,,,
COc1ccc(COc2ccc(-c3c(-c4ccncc4)nn4c3C(=O)NCC4)cc2)cc1 [Compound 112],,158 nM,,6.8,,,260 °C,5.8,,,> 10000 nM,1000 nM,316 nM
CC(C)c1ccc(COc2ccc(-c3c(-c4ccncn4)nn4c3C(=O)NCC4)cc2)cc1 [Compound 158],> 10000 nM,50.1 nM,7.4,7.4,316 nM,126 nM,,6.5,,,,,
CC(C)c1ccc(COc2ccc(-c3c(-c4ccncn4)nn4c3C(=O)N(CCO)CC4)cc2)cc1 [Compound 159],> 10000 nM,50.1 nM,7.2,7.3,63.1 nM,,160 °C,6.4,,,,,
c1cc(-c2nn3c(c2-c2ccc(OCc4ccc(C5CC5)cc4)cc2)CNC2(CC2)C3)ccn1 [Compound 171],,398 nM,,6.2,,,152 °C,6.0,,,> 10000 nM,1580 nM,501 nM
c1cc(-c2nn3c(c2-c2ccc(OCc4ccc(C5CC5)cc4)cc2)CNCC3)ccn1 [Compound 172],,631 nM,6.3,6.4,,,,5.2,,,> 10000 nM,3980 nM,316 nM
O=C1NC2(CNC2)Cn2nc(-c3ccncc3)c(-c3ccc(OCc4ccc(C5CC5)cc4)cc3)c21 [Compound 183],,200 nM,,6.0,,,173 °C,5.6,,,> 10000 nM,1580 nM,398 nM

# Reference: patent publication US10280170B2, “Substituted 4,5,6,7-tetrahydro-pyrazolo[1,5-a]pyrazine derivatives and 5,6,7,8-tetrahydro-4H-pyrazolo[1,5-a][1,4]diazepine derivatives as Ros1 inhibitors” (Janssen Pharmaceutica NV, priority 2014, dated 2019)
